Results taken from patent US12678490B2, “Pharmaceutical combinations comprising insulin and at least an agent selected from meloxicam, bromfenac sodium, acetylsalicylic acid, salicyclic acid and paracetamol” (Eli Lilly and Company, priority 2017, dated 2026).

Columns and labels:
plasma glucose = test: Pre-clinical in vivo CSII model, local or oral dexamethasone with insulin lispro bolus; design: species or system Yucatan mini pigs; conditions: for Baseline-adjusted area under the curve for plasma glucose over the 6 hours following an insulin bolus: 0.15 U/kg U100 insulin lispro bolus, mean ± SEM; for improving infusion site viability: local delivery, 0.25 mg/h (6 mg/d)
[1] = Insulin lispro co-formulation stability, main peak loss and HMWP growth by analytical RP-HPLC; assay type: physicochemical; conditions: co-formulated with insulin lispro, 37° C.
Protocol: Two separate formulations are prepared as described above with 20 mM acetylsalicylic acid or 90 mM paracetamol; however, the m-cresol is excluded from the formulation. All samples are adjusted with water to achieve the final concentrations. […] All samples are filtered using 0.22 um syringe filter ([…]). […] The samples are visibly inspected for particulate or precipitation throughout study. Insulin lispro main peak loss and HMWP growth are tracked over time using HPLC. […] The UV detector is set to 214 nm wavelength, column temperature to 40° C., flowrate to 1 mL/min, and injection volume to 5 uL of each formulation. […] The data is collected and slope analysis of rate of change per day is performed using Y by X plots using commercial software.

| SMILES | Baseline-adjusted area under the curve for plasma glucose over the 6 hours following an insulin bolus (plasma glucose; Oral: 25 uL/h insulin placebo + twice daily oral 3 mg dexamethasone, day 0) | Baseline-adjusted area under the curve for plasma glucose over the 6 hours following an insulin bolus (plasma glucose; Oral: 25 uL/h insulin placebo + twice daily oral 3 mg dexamethasone, day 3) | Baseline-adjusted area under the curve for plasma glucose over the 6 hours following an insulin bolus (plasma glucose; Oral: 25 uL/h insulin placebo + twice daily oral 3 mg dexamethasone, day 5) | Baseline-adjusted area under the curve for plasma glucose over the 6 hours following an insulin bolus (plasma glucose; Oral: 25 uL/h insulin placebo + twice daily oral 3 mg dexamethasone, day 7) | Baseline-adjusted area under the curve for plasma glucose over the 6 hours following an insulin bolus (plasma glucose; Oral: 25 uL/h insulin placebo + twice daily oral 3 mg dexamethasone, day 10) | Baseline-adjusted area under the curve for plasma glucose over the 6 hours following an insulin bolus (plasma glucose; Subcutaneous: continuous infusion of 0.25 mg/h dexamethasone, day 0) | Baseline-adjusted area under the curve for plasma glucose over the 6 hours following an insulin bolus (plasma glucose; Subcutaneous: continuous infusion of 0.25 mg/h dexamethasone, day 3) | Baseline-adjusted area under the curve for plasma glucose over the 6 hours following an insulin bolus (plasma glucose; Subcutaneous: continuous infusion of 0.25 mg/h dexamethasone, day 5) | Baseline-adjusted area under the curve for plasma glucose over the 6 hours following an insulin bolus (plasma glucose; Subcutaneous: continuous infusion of 0.25 mg/h dexamethasone, day 7) | Baseline-adjusted area under the curve for plasma glucose over the 6 hours following an insulin bolus (plasma glucose; Subcutaneous: continuous infusion of 0.25 mg/h dexamethasone, day 10) | improving infusion site viability (plasma glucose) | improving infusion site viability (plasma glucose; listed as dexamethosone) [days] | effect on infusion site viability (plasma glucose; orally delivered) | impact on insulin lispro stability [1] |
| --- | --- | --- | --- | --- | --- | --- | --- | --- | --- | --- | --- | --- | --- | --- |
| C[C@@H]1C[C@H]2[C@@H]3CCC4=CC(=O)C=C[C@]4(C)[C@@]3(F)[C@@H](O)C[C@]2(C)[C@@]1(O)C(=O)CO [Dexamethasone, (8S,9R,10S,11S,13S,14S,16R,17R)-9-fluoro-11,17-dihydroxy-17-(2-hydroxyacetyl)-10,13,16-trimethyl-6,7,8,11,12,14,15,16-octahydrocyclopenta[a]phenanthren-3-one] | −14218 ± 754 | −5265 ± 2130 | −8109 ± 987 | −7750 ± 1491 | −4266 ± 1551 | −16700 ± 2027 | −12591 ± 873 | −12297 ± 755 | −7149 ± 1555 | −4893 ± 775 | up to 5 days | 5 | no effect | – |
| CC(=O)Oc1ccccc1C(=O)O [acetylsalicylic acid, 2-acetoxybenzoic acid] | – | – | – | – | – | – | – | – | – | – | – | – | – | minimal impact on insulin lispro stability |
| CC(=O)Nc1ccc(O)cc1 [paracetamol, N-(4-hydroxypehnyl)acetamide] | – | – | – | – | – | – | – | – | – | – | – | – | – | minimal impact on insulin lispro stability |
